The structures appear in SMILES notation.

Experiment [1] deals with T1, NLRP3 (Homo sapiens, UniProt Q96P20). Kind of experiment: THP-1 cells pyroptosis assay. In kind it is cell-based. On the set-up: Seed THP-1 cells (25,000 cells/well) containing 1.0 μg/ml LPS; host or cells: THP-1 cells, LPS-primed, nigericin-stimulated. As to conditions: 1.0 μg/ml LPS, nigericin 5 μM, resazurin readout. In a few lines: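 THP-1 cells (25,000/well, serum-free RPMI) primed with 1 μg/ml LPS were given compound (8-point half-log series, top 10 μM; 0.1% DMSO) for 3 h at 37 °C, then 5 μM nigericin for 1 h. Viability read by 100 μM resazurin fluorescence (Ex 560/Em 590) after 1–2 h; IC50 from four-parameter nonlinear regression.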
(In general: Resazurin is reduced to fluorescent resorufin, in cell work by metabolically active cells.)

Experiment [2] has as its target T1, NLRP3. In words: Human whole blood IL1β release assay. It counts as cell-based. Also on record: Plate out 80 μl of whole blood containing 1 μg/ml of LPS; from tissue; host or cells: human whole blood from healthy donors, LPS-primed, nigericin-stimulated. The settings on record: 1 μg/ml LPS, nigericin 10 μM, IL-1β by AlphaLisa, read-out: HWB IC50. The procedure:
For systemic delivery, the ability to inhibit NLRP3 when the compounds are present within the bloodstream is of great importance. For this reason, the NLRP3 inhibitory activity of a number of compounds in human whole blood was investigated in accordance with the following protocol.
Human whole blood in Li-heparin tubes was obtained from healthy donors from a volunteer donor panel. • 1. Plate out 80 μl of whole blood containing 1 μg/ml of LPS in 96-well, clear bottom cell culture plate (Corning #3585) • 2. Add 10 μl compound (8 points half-log dilution with 10 μM top dose) or vehicle (DMSO 0.1% FAC) to the appropriate wells • 3. Incubate for 3 hrs at 37° C., 5% CO2 • 4. Add 10 μl Nigericin (Sigma #N7143) (10 μM FAC) to all wells • 5. Incubate for 1 hr at 37° C., 5% CO2 • 6. At the end of the incubation period, spin plates at 300×g for 5 mins to pellet cells and remove 20 μl of supernatant and add to 96-well v-bottom plates for IL-1β analysis (note: these plates containing the supernatants can be stored at −80° C. to be analysed at a later date) • 7. IL-1β was measured according to the manufacturer protocol (Perkin Elmer-AlphaLisa IL-1 Kit AL220F-5000) • 8. IC50 data is fitted to anon-linear regression equation (log inhibitor vs response-variable slope 4-parameters)

T1 sequence (Q96P20 whole entry): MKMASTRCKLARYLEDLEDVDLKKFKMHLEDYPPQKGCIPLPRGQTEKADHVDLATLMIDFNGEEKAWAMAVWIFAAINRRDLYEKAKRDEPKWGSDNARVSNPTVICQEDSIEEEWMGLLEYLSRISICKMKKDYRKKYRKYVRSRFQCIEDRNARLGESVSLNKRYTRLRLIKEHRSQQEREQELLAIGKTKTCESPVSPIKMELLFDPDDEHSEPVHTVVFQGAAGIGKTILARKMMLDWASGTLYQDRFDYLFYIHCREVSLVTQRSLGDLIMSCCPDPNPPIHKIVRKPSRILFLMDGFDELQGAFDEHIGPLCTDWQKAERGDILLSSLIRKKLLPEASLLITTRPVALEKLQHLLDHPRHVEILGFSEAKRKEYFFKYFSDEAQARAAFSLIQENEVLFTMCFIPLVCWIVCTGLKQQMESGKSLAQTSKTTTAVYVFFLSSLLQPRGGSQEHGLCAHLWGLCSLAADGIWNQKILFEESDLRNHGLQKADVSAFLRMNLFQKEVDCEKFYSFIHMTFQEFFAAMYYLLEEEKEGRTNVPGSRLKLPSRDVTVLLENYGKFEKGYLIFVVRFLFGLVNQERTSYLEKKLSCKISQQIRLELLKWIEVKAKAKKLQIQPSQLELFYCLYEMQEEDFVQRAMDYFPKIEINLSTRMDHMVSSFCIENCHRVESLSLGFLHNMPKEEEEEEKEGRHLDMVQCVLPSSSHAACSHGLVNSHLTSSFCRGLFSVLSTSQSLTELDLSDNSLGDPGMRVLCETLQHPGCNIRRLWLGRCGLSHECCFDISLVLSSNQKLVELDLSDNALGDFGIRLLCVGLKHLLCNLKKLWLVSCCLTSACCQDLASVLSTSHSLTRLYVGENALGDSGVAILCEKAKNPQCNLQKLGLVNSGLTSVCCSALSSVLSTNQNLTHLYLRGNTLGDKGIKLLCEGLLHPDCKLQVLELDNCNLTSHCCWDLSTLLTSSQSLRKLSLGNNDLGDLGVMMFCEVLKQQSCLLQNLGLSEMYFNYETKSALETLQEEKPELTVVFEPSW

The IC50 is the concentration needed to halve the response being measured. For `CC(C)c1cc(Cl)cc(C(C)C)c1NC(=O)NS(=O)(=O)c1cc(C(=O)N(C)CCO)n(C)n1` [Example 74, 3-(N-((4-Chloro-2,6-diisopropylphenyl)carbamoyl)sulfamoyl)-N-(2-hydroxyethyl)-N,1-dimethyl-1H-pyrazole-5-carboxamide], the figures for the IC50 against NLRP3 [1] and at NLRP3 [2] were 40 to 160 nM and 800 to 1600 nM, respectively.
Turning to `CN(CCO)C(=O)c1cc(S(=O)(=O)NC(=O)Nc2c3c(cc4c2CCC4)CCC3)nn1C` [Example 78, 3-(N-((1,2,3,5,6,7-Hexahydro-s-indacen-4-yl)carbamoyl)sulfamoyl)-N-(2-hydroxyethyl)-N,1-dimethyl-1H-pyrazole-5-carboxamide], the IC50 against NLRP3 [1] is 40 to 160 nM; at NLRP3 [2], below 400 nM.
On the same counts, the results for `COCCN(CCOC)C(=O)c1cc(S(=O)(=O)NC(=O)Nc2c(-c3ccnc(OC(C)C)c3)cc(F)cc2C(C)C)nn1C` [Example 79, 3-(N-((4-Fluoro-2-(2-isopropoxypyridin-4-yl)-6-isopropyl-phenyl)carbamoyl)sulfamoyl)-N,N-bis(2-methoxyethyl)-1-methyl-1H-pyrazole-5-carboxamide] are 2560 to 10000 nM and 3200 to 10000 nM.
On the same counts, the results for `COCCN(CCOC)C(=O)c1cc(S(=O)(=O)NC(=O)Nc2c(-c3ccnc(OC)c3)ccc3c2CCC3)nn1C` [Example 80, N,N-Bis(2-methoxyethyl)-3-(N-((5-(2-methoxypyridin-4-yl)-2,3-dihydro-1H-inden-4-yl)carbamoyl)sulfamoyl)-1-methyl-1H-pyrazole-5-carboxamide] are 160 to 640 nM and below 400 nM.
For `CC(C)Oc1cc(-c2cc(F)cc(C(C)C)c2NC(=O)NS(=O)(=O)c2cc(C(=O)N(C)C)n(C)n2)ccn1` [Example 81, 3-(N-((4-Fluoro-2-(2-isopropoxypyridin-4-yl)-6-isopropyl-phenyl)carbamoyl)sulfamoyl)-N,N,1-trimethyl-1H-pyrazole-5-carboxamide] the same measures were 160 to 640 nM and 1600 to 3200 nM.
As for `COc1cc(-c2ccc3c(c2NC(=O)NS(=O)(=O)c2cc(C(=O)N(C)C)n(C)n2)CCC3)ccn1` [Example 82, 3-(N-((5-(2-Methoxypyridin-4-yl)-2,3-dihydro-1H-inden-4-yl)carbamoyl)sulfamoyl)-N,N,1-trimethyl-1H-pyrazole-5-carboxamide], the IC50 was below 40 nM against NLRP3 [1] and below 400 nM on NLRP3 [2].
On the same counts, the results for `CN(C)C(=O)C(C)(C)n1ccc(S(=O)(=O)NC(=O)Nc2c3c(cc4c2CCC4)CCC3)n1` [Example 83, 2-(3-(N-((1,2,3,5,6,7-Hexahydro-s-indacen-4-yl)carbamoyl)sulfamoyl)-1H-pyrazol-1-yl)-N,N,2-trimethylpropanamide] are 40 to 160 nM and 800 to 1600 nM.
On the same counts, the results for `COc1cc(-c2ccc3c(c2NC(=O)NS(=O)(=O)c2ccn(C(C)(C)C(=O)N(C)C)n2)CCC3)ccn1` [Example 84] are below 40 nM and below 400 nM.

Source of the values: US20210122739A1, “NOVEL SULFONAMIDE CARBOXAMIDE COMPOUNDS” (Inflazome Limited, priority 2017, published 2021).
